Results reported in patent US12371454B2, “Cyclic peptide compound having Kras inhibitory action” (priority 2019, dated 2025).
pIC50: −log10 of the molar value. Positions of bridges follow the written chain, without caps; N, C: chain ends. Non-standard residues stand in square brackets, D forms with d. Residues, ends and D or L forms follow the SMILES beside them. *: point of attachment. hPhe(3-Cl-4-CF3) = N[C@@H](CCc1ccc(C(F)(F)F)c(Cl)c1)C(=O)O; hPhe(3-F,4-CF3) = N[C@@H](CCc1ccc(C(F)(F)F)c(F)c1)C(=O)O; NMePhe(4-CF3) = CN[C@@H](Cc1ccc(C(F)(F)F)cc1)C(=O)O; 3Oxa8azabicyclo(3.2.1)octane = C1CC2COCC1N2*; NEtPhe(4-Me) = CCN[C@@H](Cc1ccc(C)cc1)C(=O)O; NMePhe(4-Me) = CN[C@@H](Cc1ccc(C)cc1)C(=O)O; NMeAla(cPent) = CN[C@@H](CC1CCCC1)C(=O)O; NMeGly(cPent) = CN[C@H](C(=O)O)C1CCCC1; Gly(cPent) = N[C@H](C(=O)O)C1CCCC1; NMeCha = CN[C@@H](CC1CCCCC1)C(=O)O; NMehLeu = CN[C@@H](CCC(C)C)C(=O)O; NEtLeu = CCN[C@@H](CC(C)C)C(=O)O; NMeI = CC[C@H](C)[C@H](NC)C(=O)O; Piperidide(4-Me) = CC1CCN(*)CC1; NMeD = CN[C@@H](CC(=O)O)C(=O)O; NMeL = CN[C@@H](CC(C)C)C(=O)O; NMeV = CN[C@H](C(=O)O)C(C)C; d(β3hA) = C[C@@H](N)CC(=O)O; Azetidin(1-yl) = C1CN(*)C1; NMeS = CN[C@@H](CO)C(=O)O; Morpholide = C1CN(*)CCO1; NMeA = CN[C@@H](C)C(=O)O; Ac5c = NC1(C(=O)O)CCCC1; Aze = O=C(O)[C@@H]1CCN1; Sar = CNCC(=O)O; Propyl = CCC*

system: Human pancreatic cancer cell line AsPC-1; assay: Measurement of AsPC-1 cell growth inhibition (AsPC-1 CGI); format: cell-based; conditions: 96 h
Procedure, shortened: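 AsPC-1 cells in 15% FBS RPMI-1640 were exposed to test compound for 96 hours at 37° C, with CellTiter-Glo as endpoint.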

Row | SMILES | pIC50
1 | CCCOC[C@H]1C(=O)N(C)CC(=O)N[C@@H](CCc2ccc(C(F)(F)F)c(Cl)c2)C(=O)N2CCC[C@H]2C(=O)NC2(CCCC2)C(=O)N(C)[C@@H](C2CCCC2)C(=O)N(C)[C@H](C(=O)N2C3CCC2COC3)CC(=O)N(CC)[C@@H](CC(C)C)C(=O)N[C@@H]([C@@H](C)CC)C(=O)N[C@@H](C)C(=O)N2CC[C@H]2C(=O)N1C [Compound 1167] ([NEtLeu]IA[Aze][NMeS](Propyl)[Sar][hPhe(3-Cl-4-CF3)]P[Ac5c][NMeGly(cPent)][NMeD]-{3Oxa8azabicyclo(3.2.1)octane}; lactam N-11) | 6.30 to 7.00
2 | CC[C@H](C)[C@@H]1NC(=O)[C@H](CC2CCCC2)N(C)C(=O)C[C@@H](C(=O)N2CCOCC2)N(C)C(=O)[C@H](C2CCCC2)N(C)C(=O)C2(CCCC2)NC(=O)[C@@H]2CCCN2C(=O)[C@H](CCc2ccc(C(F)(F)F)c(Cl)c2)NC(=O)CN(C)C(=O)[C@H](CC2CCCCC2)N(C)C(=O)[C@@H]2CCN2C(=O)[C@H](C)NC1=O [Compound 1176] ([NMeAla(cPent)]IA[Aze][NMeCha][Sar][hPhe(3-Cl-4-CF3)]P[Ac5c][NMeGly(cPent)][NMeD]-Morpholide; lactam N-11) | 7.00 to 7.30
3 | CCCOC[C@H]1C(=O)N(C)CC(=O)N[C@@H](CCc2ccc(C(F)(F)F)c(Cl)c2)C(=O)N2CCC[C@H]2C(=O)NC2(CCCC2)C(=O)N(C)[C@@H](C2CCCC2)C(=O)N(C)[C@H](C(=O)N2C3CCC2COC3)CC(=O)N(CC)[C@@H](CC(C)C)C(=O)N[C@@H]([C@@H](C)CC)C(=O)N(C)[C@@H](C)C(=O)N2CC[C@H]2C(=O)N1C [Compound 1193] ([NEtLeu]I[NMeA][Aze][NMeS](Propyl)[Sar][hPhe(3-Cl-4-CF3)]P[Ac5c][NMeGly(cPent)][NMeD]-{3Oxa8azabicyclo(3.2.1)octane}; lactam N-11) | 7.30 to 7.70
4 | CC[C@H](C)[C@@H]1NC(=O)[C@H](CC(C)C)N(CC)C(=O)C[C@@H](C(=O)N2CCC2)N(C)C(=O)[C@H](C2CCCC2)N(C)C(=O)C2(CCCC2)NC(=O)[C@@H]2CCCN2C(=O)[C@H](CCc2ccc(C(F)(F)F)c(Cl)c2)NC(=O)CN(C)C(=O)[C@H](CC2CCCCC2)N(C)C(=O)[C@@H]2CCN2C(=O)[C@H](C)N(C)C1=O [Compound 1198] ([NEtLeu]I[NMeA][Aze][NMeCha][Sar][hPhe(3-Cl-4-CF3)]P[Ac5c][NMeGly(cPent)][NMeD]-{Azetidin(1-yl)}; lactam N-11) | 7.30 to 7.70
5 | CC[C@H](C)[C@@H]1NC(=O)[C@H](CC(C)C)N(C)C(=O)C[C@@H](C(=O)N2C3CCC2COC3)N(C)C(=O)[C@H](C2CCCC2)N(C)C(=O)C2(CCCC2)NC(=O)[C@@H]2CCCN2C(=O)[C@H](CCc2ccc(C(F)(F)F)c(Cl)c2)NC(=O)CN(C)C(=O)[C@H](Cc2ccc(C)cc2)N(CC)C(=O)[C@@H]2CCN2C(=O)[C@H](C)N(C)C1=O [Compound 1236] ([NMeL]I[NMeA][Aze][NEtPhe(4-Me)][Sar][hPhe(3-Cl-4-CF3)]P[Ac5c][NMeGly(cPent)][NMeD]-{3Oxa8azabicyclo(3.2.1)octane}; lactam N-11) | 7.30 to 7.70
6 | CCCOC[C@H]1C(=O)N(C)CC(=O)N[C@@H](CCc2ccc(C(F)(F)F)c(Cl)c2)C(=O)N2CCC[C@H]2C(=O)NC2(CCCC2)C(=O)N(C)[C@@H](C2CCCC2)C(=O)N(C)[C@H](C(=O)N2C3CCC2COC3)CC(=O)N(C)[C@@H](CC2CCCC2)C(=O)N[C@@H]([C@@H](C)CC)C(=O)N(C)[C@@H](C)C(=O)N2CC[C@H]2C(=O)N1C [Compound 1251] ([NMeAla(cPent)]I[NMeA][Aze][NMeS](Propyl)[Sar][hPhe(3-Cl-4-CF3)]P[Ac5c][NMeGly(cPent)][NMeD]-{3Oxa8azabicyclo(3.2.1)octane}; lactam N-11) | 7.30 to 7.70
7 | CC[C@H](C)[C@@H]1NC(=O)[C@H](CC(C)C)N(C)C(=O)C[C@@H](C(=O)N2CCC(C)CC2)N(C)C(=O)[C@H](C(C)C)N(C)C(=O)C2(CCCC2)NC(=O)[C@@H]2CCCN2C(=O)[C@H](CCc2ccc(C(F)(F)F)c(Cl)c2)NC(=O)CN(C)C(=O)[C@H](CC2CCCCC2)N(C)C(=O)[C@@H]2CCN2C(=O)[C@H](C)N(C)C1=O [Compound 1291] ([NMeL]I[NMeA][Aze][NMeCha][Sar][hPhe(3-Cl-4-CF3)]P[Ac5c][NMeV][NMeD]-{Piperidide(4-Me)}; lactam N-11) | 6.30 to 7.00
8 | CC[C@H](C)[C@@H]1NC(=O)[C@H](CCC(C)C)N(C)C(=O)C[C@@H](C(=O)N(C)C)N(C)C(=O)[C@H](C2CCCC2)N(C)C(=O)C2(CCCC2)NC(=O)[C@@H]2CCCN2C(=O)[C@H](CCc2ccc(C(F)(F)F)c(F)c2)NC(=O)CN(C)C(=O)[C@H](CC2CCCCC2)N(C)C(=O)[C@@H]2CCN2C(=O)[C@H](C)NC1=O [Compound 1292] ([NMehLeu]IA[Aze][NMeCha][Sar][hPhe(3-F,4-CF3)]P[Ac5c][NMeGly(cPent)][NMeD]-NMe2; lactam N-11) | 7.30 to 7.70
9 | CCCOC[C@H]1C(=O)N(C)CC(=O)N[C@@H](CCc2ccc(C(F)(F)F)c(Cl)c2)C(=O)N2CCC[C@H]2C(=O)NC2(CCCC2)C(=O)N(C)[C@@H](C2CCCC2)C(=O)N(C)[C@H](C(=O)N2C3CCC2COC3)CC(=O)N(C)[C@@H](CC(C)C)C(=O)N[C@@H]([C@@H](C)CC)C(=O)N[C@@H](C)C(=O)N2CC[C@H]2C(=O)N1C [Compound 1299] ([NMeL]IA[Aze][NMeS](Propyl)[Sar][hPhe(3-Cl-4-CF3)]P[Ac5c][NMeGly(cPent)][NMeD]-{3Oxa8azabicyclo(3.2.1)octane}; lactam N-11) | 7.30 to 7.70

The remaining lines, values ahead:

Row | pIC50 | SMILES
10 | 7.30 to 7.70 | CC[C@H](C)[C@@H]1NC(=O)[C@H](CCC(C)C)N(C)C(=O)C[C@@H](C(=O)N2CCOCC2)N(C)C(=O)[C@H](C2CCCC2)N(C)C(=O)C2(CCCC2)NC(=O)[C@@H]2CCCN2C(=O)[C@H](CCc2ccc(C(F)(F)F)c(Cl)c2)NC(=O)CN(C)C(=O)[C@H](CC2CCCCC2)N(C)C(=O)[C@@H]2CCN2C(=O)[C@H](C)NC1=O [Compound 1171] ([NMehLeu]IA[Aze][NMeCha][Sar][hPhe(3-Cl-4-CF3)]P[Ac5c][NMeGly(cPent)][NMeD]-Morpholide; lactam N-11)
11 | 6.30 to 7.00 | CC[C@H](C)[C@@H]1NC(=O)[C@H](CC(C)C)N(C)C(=O)C[C@@H](C)NC(=O)[C@H](C2CCCC2)NC(=O)C2(CCCC2)NC(=O)[C@@H]2CCCN2C(=O)[C@H](CCc2ccc(C(F)(F)F)c(Cl)c2)NC(=O)CN(C)C(=O)[C@H](Cc2ccc(C)cc2)N(C)C(=O)[C@@H]2CCN2C(=O)[C@H](C)N(C)C1=O [Compound 1213] (cyclo([Ac5c][Gly(cPent)][d(β3hA)][NMeL]I[NMeA][Aze][NMePhe(4-Me)][Sar][hPhe(3-Cl-4-CF3)]P))
12 | 7.30 to 7.70 | CC[C@H](C)[C@@H]1NC(=O)[C@H](CCC(C)C)N(C)C(=O)C[C@@H](C(=O)N2CCOCC2)N(C)C(=O)[C@H](C2CCCC2)N(C)C(=O)C2(CCCC2)NC(=O)[C@@H]2CCCN2C(=O)[C@H](CCc2ccc(C(F)(F)F)c(Cl)c2)NC(=O)CN(C)C(=O)[C@H](C2CCCC2)N(C)C(=O)[C@@H]2CCN2C(=O)[C@H](C)NC1=O [Compound 1223] ([NMehLeu]IA[Aze][NMeGly(cPent)][Sar][hPhe(3-Cl-4-CF3)]P[Ac5c][NMeGly(cPent)][NMeD]-Morpholide; lactam N-11)
13 | 7.00 to 7.30 | CC[C@H](C)[C@@H]1NC(=O)[C@H](CC(C)C)N(CC)C(=O)C[C@@H](C(=O)N2CCOCC2)N(C)C(=O)[C@H]([C@@H](C)CC)N(C)C(=O)C2(CCCC2)NC(=O)[C@@H]2CCCN2C(=O)[C@H](CCc2ccc(C(F)(F)F)c(Cl)c2)NC(=O)CN(C)C(=O)[C@H](Cc2ccc(C(F)(F)F)cc2)N(C)C(=O)[C@@H]2CCN2C(=O)[C@H](C)NC1=O [Compound 1233] ([NEtLeu]IA[Aze][NMePhe(4-CF3)][Sar][hPhe(3-Cl-4-CF3)]P[Ac5c][NMeI][NMeD]-Morpholide; lactam N-11)
14 | 6.30 to 7.00 | CC[C@H](C)[C@@H]1NC(=O)[C@H](CC(C)C)N(CC)C(=O)C[C@@H](C(=O)N2CCC2)N(C)C(=O)[C@H](C2CCCC2)N(C)C(=O)C2(CCCC2)NC(=O)[C@@H]2CCCN2C(=O)[C@H](CCc2ccc(C(F)(F)F)c(Cl)c2)NC(=O)CN(C)C(=O)[C@H](CC2CCCCC2)N(C)C(=O)[C@@H]2CCN2C(=O)[C@H](C)NC1=O [Compound 1262] ([NEtLeu]IA[Aze][NMeCha][Sar][hPhe(3-Cl-4-CF3)]P[Ac5c][NMeGly(cPent)][NMeD]-{Azetidin(1-yl)}; lactam N-11)
15 | 6.30 to 7.00 | CC[C@H](C)[C@@H]1NC(=O)[C@H](CC(C)C)N(CC)C(=O)C[C@@H](C(=O)N2CCOCC2)N(C)C(=O)[C@H](C2CCCC2)N(C)C(=O)C2(CCCC2)NC(=O)[C@@H]2CCCN2C(=O)[C@H](CCc2ccc(C(F)(F)F)c(Cl)c2)NC(=O)CN(C)C(=O)[C@H](CC2CCCCC2)N(C)C(=O)[C@@H]2CCN2C(=O)[C@H](C)NC1=O [Compound 1266] ([NEtLeu]IA[Aze][NMeCha][Sar][hPhe(3-Cl-4-CF3)]P[Ac5c][NMeGly(cPent)][NMeD]-Morpholide; lactam N-11)
16 | 7.30 to 7.70 | CC[C@H](C)[C@@H]1NC(=O)[C@H](CC(C)C)N(CC)C(=O)C[C@@H](C(=O)N(C)C)N(C)C(=O)[C@H]([C@@H](C)CC)N(C)C(=O)C2(CCCC2)NC(=O)[C@@H]2CCCN2C(=O)[C@H](CCc2ccc(C(F)(F)F)c(Cl)c2)NC(=O)CN(C)C(=O)[C@H](Cc2ccc(C)cc2)N(C)C(=O)[C@@H]2CCN2C(=O)[C@H](C)NC1=O [Compound 1287] ([NEtLeu]IA[Aze][NMePhe(4-Me)][Sar][hPhe(3-Cl-4-CF3)]P[Ac5c][NMeI][NMeD]-NMe2; lactam N-11)
17 | 7.00 to 7.30 | CC[C@H](C)[C@@H]1NC(=O)[C@H](CC(C)C)N(C)C(=O)C[C@@H](C(=O)N2CCOCC2)N(C)C(=O)[C@H](C2CCCC2)N(C)C(=O)C2(CCCC2)NC(=O)[C@@H]2CCCN2C(=O)[C@H](CCc2ccc(C(F)(F)F)c(Cl)c2)NC(=O)CN(C)C(=O)[C@H](C2CCCC2)N(C)C(=O)[C@@H]2CCN2C(=O)[C@H](C)NC1=O [Compound 1309] ([NMeL]IA[Aze][NMeGly(cPent)][Sar][hPhe(3-Cl-4-CF3)]P[Ac5c][NMeGly(cPent)][NMeD]-Morpholide; lactam N-11)
